Three sequences from PMC11076555, “Dishevelled2 activates WGEF via its interaction with a unique internal peptide motif of the GEF” (Communications Biology, 2024) can be followed below.

For experiment [1], the target named is T1, Dvl2^PDZ (PDZ domain of human Dishevelled2) (Homo sapiens, UniProt O14641).
T1 construct: introducing a stop codon after C354 residue of Dvl2^PDZ to eliminate the fused peptide, cloned at the C-termini of PDZ; 6xHis (N, cleaved yes); host or cells: E. coli Rosetta (DE3)
T1 sequence (O14641 267-339 limits assumed): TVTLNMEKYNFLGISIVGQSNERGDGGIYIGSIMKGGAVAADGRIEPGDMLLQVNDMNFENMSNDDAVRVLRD
Nature of the experiment: Microscale thermophoresis (MST) binding to Dvl2^PDZ. As to conditions: compared with wild-type WGEF^pep, triplicates. On the procedure:
MST experiments were performed using Monolith NT.115 instrument from Nanotemper technologies. Dvl2^PDZ domain was fluorescently labelled as per the instructions, using Monolith Redmaleimide 2nd generation-cysteine reactive label. The experimental condition consists of 10 mM Tris–HCl pH8, 150 mM NaCl, 2 mM DTT, 5% Glycerol and 0.05% Tween20. For Dvl2^PDZ-peptide affinity determination, synthetic WGEF peptides were serially diluted (1:2) 16 times, starting from an approximate concentration of 3.4 mM. 50 nM of fluorescently labelled Dvl2^PDZ domain was added to the serially diluted peptides, followed by incubation at 25 °C for 30 minutes. Thermophoresis signals were recorded at 20% of excitation power and 40% MST at 25 °C. Data was fitted using the Kd fit model in the MO. Affinity Analysis v2.3 software. Like peptides, hWGEF (330–581) protein was serially diluted to obtain a protein concentration range of 138–0.0042 µM. Experimental conditions were the same as mentioned above for peptides. All MST experiments were done in triplicates.
Guanine nucleotide exchange assays were performed in triplicates. Fluorescence decrease was fitted using a single exponential decay mode in GraphPad Prism. All results are reported with standard deviation (±SD). Statistical significance was calculated using ordinary One-way ANOVA with multiple comparisons. * Represents adjust P value with statistical significance of ****P < 0.0001, ***P < 0.001, **P < 0.01 and […]. MST assays were performed in triplicates. Data was fitted using the Kd fit model in the MO. Affinity Analysis v2.3 software. All results are reported with standard deviation (±SD). MD simulation runs for apo and peptide docked Dvl2^PDZ were performed in triplicates. Plots reported from MD simulation studies are represented with standard deviation (±SD).
For orientation: MST reads how a fluorescent partner responds to local heating, with and without ligand.

Experiment [2] has as its system Dvl2^PDZ–WGEF interaction. Nature of the experiment: In vitro guanine nucleotide exchange (GEF) assay, peptide competition with Dvl2^PDZ-activated xWGEF330. As to conditions: 200 µM peptide, 50 µM Dvl2^PDZ, 5 µM xWGEF330, 2 µM Mant-GDP loaded RhoA, 30 min at 25 °C, fluorescence 360/440 nm, triplicates. Type of experiment: biochemical, Xenopus laevis (xWGEF), human (hDvl2^PDZ. The method, then: Guanine nucleotide exchange assays were carried out using RhoA loaded with fluorescently labelled Mant-GDP[63],[64]. Briefly, 150 μM of RhoA was incubated with 5 Molar excess of fluorescent label, i.e., Mant-GDP in a buffer containing 10 mM Tris pH 8, 150 mM NaCl, 2 mM DTT, 5 mM EDTA, 0.5 mM MgCl2 and 5% Glycerol. The reaction was incubated on ice for 30 min, followed by the addition of 10 mM MgCl2 to stop the reaction. Excess Mant-GDP was removed through buffer exchange and Mant-GDP loaded RhoA was concentrated and stored at −80 °C. For assays, 2 μM of Mant-GDP loaded RhoA was incubated with 5 μM of xWGEF in the presence or absence of hDvl2^PDZ (0 μM, 25 μM and 50 μM) for 30 min at 25 °C. […] Once the fluorescence was stable, excess GTP (10x of labelled GTPase) was added to start the exchange reaction. […] A decrease in fluorescence was recorded using a BioTek Cytation5 plate reader with excitation and emission of 360 and 440 nm, respectively. Fluorescence was normalized and decrease was fitted using a single exponential decay mode in GraphPad Prism. […]
Guanine nucleotide exchange assays were performed in triplicates. Fluorescence decrease was fitted using a single exponential decay mode in GraphPad Prism. […]

“GSTFSLAQDIP [WGEF^pepW7A, alanine variant of WGEF^pep, …]”: in experiment [1], the “Effect of alanine substitution on WGEF^pep–Dvl2^PDZ interaction (in words)” value (“Effect of alanine substitution” below) is on record as “completely abolishes”.

With “GSTFSLWQAIP [WGEF^pepD9A, alanine variant of WGEF^pep, …]”, the “Effect of peptide on GEF (nucleotide exchange) activity of Dvl2^PDZ-activated xWGEF330” value in experiment [2] was “decrease in the exchange activity of WGEF, but not to an extent brought out by the wild-type WGEF^pep”. Further, the “Effect of alanine substitution” value in experiment [1] was “completely abolishes”. Take “GSTFSLWQDIA [WGEF^pepP11A, alanine variant of WGEF^pep, …]”: the “Effect of alanine substitution” value in experiment [1] is “completely abolishes”.
